The source of these data is US20040044007A1, “Indoline derivatives” (H. Lundbeck A/S, priority 2000, published 2004).

One data set deals with T1, 5-HT2A receptors (Rattus norvegicus, UniProt P14842).
T1 construct: membranes from rat brain (cortex) in vitro; from tissue; host or cells: rat brain cortex membranes
Description: Inhibition of the binding of [3H]Ketanserin to 5-HT2A receptors. Particulars: [3H]Ketanserin 0.50 nM, membranes from rat brain (cortex); read-out: IC50 (nM) at the 5HT2A-receptor. The procedure: Inhibition of the Binding of [^3H]Ketanserin to 5-HT2A Receptors
The compounds were tested with respect to their affinity for 5-HT2A receptors by determining their ability to inhibit binding of [^3H]Ketanserin (0.50 nM) to membranes from rat brain (cortex) in vitro. Method described in Sanchez et al. Drug Dev. Res. 1991, 22, 239-250.

The target of data set [1] is T2, human cloned dopamine D4.2 receptors (Homo sapiens, UniProt P21917, DEL265-296).
T2 construct: expressed in transfected cells; host or cells: CHO cells
T2 sequence (P21917 with tags, fused parts or gaps DEL265-296): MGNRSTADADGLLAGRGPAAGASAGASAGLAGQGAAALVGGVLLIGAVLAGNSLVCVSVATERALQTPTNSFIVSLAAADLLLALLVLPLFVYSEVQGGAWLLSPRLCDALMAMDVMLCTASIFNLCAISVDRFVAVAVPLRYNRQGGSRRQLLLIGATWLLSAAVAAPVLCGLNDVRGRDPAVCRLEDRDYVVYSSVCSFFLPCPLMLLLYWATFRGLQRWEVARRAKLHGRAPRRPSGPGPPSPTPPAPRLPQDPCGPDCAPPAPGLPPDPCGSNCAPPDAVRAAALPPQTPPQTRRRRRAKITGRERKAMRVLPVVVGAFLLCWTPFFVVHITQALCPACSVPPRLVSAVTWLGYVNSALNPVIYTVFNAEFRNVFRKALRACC
Put plainly: Inhibition of the binding of [3H]YM-09151-2 to D4.2 receptors. Conditions: [3H]YM-09151-2 0.06 nM; for % inhib. at the D4-receptor: % inhibition of binding at 50 nM; for IC50: membranes of CHO-cells, read-out: IC50 (nM) at the D4-receptor. From the text: The method is modified from NEN Life Science Products, Inc., technical data certificate PC2533-10/96.

In another data set the target is T3, D4 receptor (Homo sapiens, UniProt P21917).
T3 sequence (P21917 1-419): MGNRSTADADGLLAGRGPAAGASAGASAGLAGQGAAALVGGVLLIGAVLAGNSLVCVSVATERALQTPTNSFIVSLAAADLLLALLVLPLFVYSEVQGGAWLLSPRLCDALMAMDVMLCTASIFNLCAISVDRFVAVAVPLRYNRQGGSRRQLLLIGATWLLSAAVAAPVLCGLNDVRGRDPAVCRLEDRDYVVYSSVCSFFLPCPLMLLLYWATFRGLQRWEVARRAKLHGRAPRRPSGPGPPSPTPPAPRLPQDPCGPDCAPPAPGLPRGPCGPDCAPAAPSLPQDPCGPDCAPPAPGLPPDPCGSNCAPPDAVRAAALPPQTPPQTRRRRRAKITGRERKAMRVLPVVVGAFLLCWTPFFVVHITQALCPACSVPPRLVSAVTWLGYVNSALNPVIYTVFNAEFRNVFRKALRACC
Conditions: various in vitro efficacy assays (Gazi et al.); cited from earlier work.

Where a name gives a salt, the structure may show the parent alone.

T1 sequence (P14842 whole entry): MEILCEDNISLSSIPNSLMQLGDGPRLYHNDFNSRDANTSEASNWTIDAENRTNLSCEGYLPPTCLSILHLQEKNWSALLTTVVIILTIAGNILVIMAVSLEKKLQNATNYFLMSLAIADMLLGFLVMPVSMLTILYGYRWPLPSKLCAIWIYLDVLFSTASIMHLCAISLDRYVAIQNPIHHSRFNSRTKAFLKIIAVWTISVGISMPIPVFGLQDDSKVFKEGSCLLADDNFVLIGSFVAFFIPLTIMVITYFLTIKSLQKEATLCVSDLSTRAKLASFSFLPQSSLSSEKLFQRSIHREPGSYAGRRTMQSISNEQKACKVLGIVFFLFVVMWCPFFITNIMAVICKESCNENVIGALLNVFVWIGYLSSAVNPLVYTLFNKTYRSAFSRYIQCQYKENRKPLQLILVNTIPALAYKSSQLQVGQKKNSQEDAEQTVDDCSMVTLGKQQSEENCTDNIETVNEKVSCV

In the case of `CC(=O)N1CC(CCN2CCN(c3ccc(Br)cc3)CC2)c2ccccc21` (stereo not drawn) [Compound 1e, (+)-]-[2-(1-Acetyl-2,3-dihydro-1H-indol-3-yl)ethyl]-4-(4-bromophenyl)piperazine, hydrochloride], the IC50 on 5-HT2A receptors came out at 17 nM. Besides, in data set [1], the “% inhib. at the D4-receptor” value turned out to be 95% and the IC50 was < 50 nM.
In the case of `CC(=O)N1CC(CCN2CC=C(c3ccc(Cl)c(Cl)c3)CC2)c2ccccc21` (centres unmarked) [Compound 1f, ]-[2-(1-Acetyl-2,3-dihydro-1H-indol-3-yl)ethyl]-4-(3,4-dichlorophenyl)-3,6-dihydro-2H-pyridine, hydrochloride], the IC50 at 5-HT2A receptors was 27 nM; in data set [1] it was 13 nM.
With `CC(C)Oc1cccnc1N(C)C1CCN(Cc2ccccc2)CC1` [Compound U-101958], the “Functional activity at D4 receptor” value on D4 receptor is listed as “partial D4 receptor agonists”.
With `CC(=O)N1CC(CCN2CCN(c3ccc(C)cc3)CC2)c2ccccc21.Cl` (single isomer, unassigned; (+)) [Compound 1b, (+)-1-[2-(1-Acetyl-2,3-dihydro-1H-indol-3-yl)ethyl]-4-(4-methylphenyl)piperazine, hydrochloride], the melting point was 217 to 220 °C. The concentration for half-maximal inhibition (IC50) at 5-HT2A receptors came to 15 nM. In data set [1], the “% inhib. at the D4-receptor” value was determined as 88% and the IC50 was < 50 nM.
In turn, `CC(=O)N1CC(CCN2CCC(c3ccc(C)cc3)CC2)c2ccccc21` (single isomer, unassigned; (+)) [Compound 1c, (+)-1-[2-(1-Acetyl-2,3-dihydro-1H-indol-3-yl)ethyl]-4-(4-methylphenyl)piperidine] displayed a melting point of 112 to 114 °C. Besides, the IC50 on 5-HT2A receptors worked out at 17 nM. In data set [1], the “% inhib. at the D4-receptor” value is 76% and the concentration for half-maximal inhibition (IC50) was < 50 nM.
Regarding `CC(=O)N1CC(CCN2CCC(c3ccc(Cl)c(Cl)c3)CC2)c2ccccc21` (centres unmarked) [Compound 1g, 1-[2-(1-Acetyl-2.3-dihydro-1H-indol-3-yl)ethyl]-4-(3.4-dichlorophenyl)piperidine, hydrochloride], the values for the half-maximal inhibitory concentration (IC50) (on 5-HT2A receptors; in data set [1]) were 21 nM and 5.4 nM, respectively.
The compound `CC(=O)N1CC(CCN2CCN(c3ccc(Cl)c(Cl)c3)CC2)c2ccccc21` (single isomer, unassigned; (+)) (as salt: hydrochloride) [Compound 1d, (+)-1-[2-(1-Acetyl-2,3-dihydro-1H-indol-3-yl)ethyl]-4-(3,4-dichlorophenyl)piperazine, hydrochloride] came in with a melting point of 184 to 186 °C.
With `CC(=O)N1CC(CCN2CCN(c3ccc(C)c(C)c3)CC2)c2ccccc21.Cl` (single isomer, unassigned; (+)) [Compound 1a, (+)-1-[2-(1-Acetyl-2,3-dihydro-1H-indol-3-yl)ethyl]-4-(3,4-dimethylphenyl)piperazine, hydrochloride], the IC50 on 5-HT2A receptors was 5 nM. In data set [1], the “% inhib. at the D4-receptor” value stood at 88% and the half-inhibitory concentration (IC50) is < 50 nM.
The matching figures for `CC(=O)N1CC(CCN2CCN(c3ccc(Cl)c(Cl)c3)CC2)c2ccccc21` (single isomer, unassigned; (+)) [Compound 1d, (+)-1-[2-(1-Acetyl-2,3-dihydro-1H-indol-3-yl)ethyl]-4-(3,4-dichlorophenyl)piperazine, hydrochloride]: 21 nM, 86% and < 50 nM.
